Series [1] is described as follows: Solubility of the compound in DMSO. It is filed as physicochemical.
The test system of a further series is Myzus persicae. In words: Insecticidal activity against Myzus persicae (green peach aphid) infested two-leaf stage of cabbage plants assessed as mortality at 250 ppm applied as spray after 4 days relative to untreated control. The note with it: 96 h. The format is functional.
The nature of series [2]: Solubility of the compound in ethyl acetate. The format is physicochemical.
A short description of series [3]: Solubility of the compound in methanol. The format is physicochemical.
Series [4] is described as follows: Solubility of the compound in chloroform. The format is physicochemical.

Each structure is given as a SMILES string.

With `O=C1c2c([nH]c3ccccc3c2=O)-c2cccn21` [QUINOLACTACIDE], the solubility entry in series [1] was “soluble”; in series [2] it was “Insoluble”; in series [3] it was “Insoluble”; in series [4], “Insoluble”. The mortality at 250 ppm in the series with Myzus persicae was 88%.

For the origin of these results see ChEMBL document CHEMBL3046738, “Quinolactacide, a new quinolone insecticide from Penicillium citrinum Thom F 1539” (Biosci Biotechnol Biochem, 2005).
